Source: patent US6737383B1, “Herbicidal oxadiazolidines” (priority 1999, dated 2004)

Columns and labels:
cocklebur = assay: Test B pre/postemergence cocklebur; format: in vivo, Xanthium strumarium
Method in brief: (§1)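 Herbicidal effect was estimated by eye on a ten-point control scale after plants spent twelve to sixteen days in a greenhouse following soil or foliar treatment. Foliar sprays targeted plants at one to four leaves; all doses were formulated in a non-phytotoxic solvent with surfactant.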

corn = assay: Test B pre/postemergence corn; format: in vivo, Zea mays
Method in brief: as §1

crabgrass = assay: Test B pre/postemergence crabgrass; format: in vivo, Digitaria sanguinalis
Method in brief: as §1

giant foxtail = assay: Test B pre/postemergence giant foxtail; format: in vivo, Setaria faberii
Method in brief: as §1

morningglory = assay: Test B pre/postemergence morningglory; format: in vivo, Ipomoea hederacea
Method in brief: as §1

pigweed = assay: Test B pre/postemergence pigweed; format: in vivo, Amaranthus retroflexus
Method in brief: as §1

rape = assay: Test B pre/postemergence rape; format: in vivo, Brassica napus
Method in brief: as §1

soybean = assay: Test B pre/postemergence soybean; format: in vivo, Glycine max
Method in brief: as §1

sugar beet = assay: Test B pre/postemergence sugar beet; format: in vivo, Beta vulgaris
Method in brief: as §1

velvetleaf = assay: Test B pre/postemergence velvetleaf; format: in vivo, Abutilon theophrasti
Method in brief: as §1

wheat = assay: Test B pre/postemergence wheat; format: in vivo, Triticum aestivum
Method in brief: as §1

wild oat = assay: Test B pre/postemergence wild oat; format: in vivo, Avena fatua
Method in brief: as §1

purple nutsedge = assay: Test B pre/postemergence purple nutsedge; format: in vivo, Cyperus rotundus
Method in brief: as §1

rice = assay: Test B flood test rice; format: in vivo, Oryza sativa
Method in brief: (§2)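 Read-out is a visual response score from 0 (no effect) to 10 (complete control), assigned by comparison with untreated controls. Treatment was applied at the 2-leaf stage, and plants stayed in the greenhouse for twelve to sixteen days before scoring.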

duck salad = assay: Test B flood test duck salad; format: in vivo, Heteranthera limosa
Method in brief: as §2

bamyardgrass = assay: Test B flood test barnyardgrass; format: in vivo, Echinochloa crus-galli
Method in brief: as §2

[1] = Postemergence, Rate 250 g/ha, scale 0 to 10
[2] = Postemergence, Rate 500 g/ha, scale of 0 to 10 where 0 is no effect and 10 is complete control
[3] = Preemergence, Rate 62 g/ha, scale 0 to 10 (0 no effect, 10 complete control)
[4] = Preemergence, Rate 125 g/ha, scale of 0 to 10 where 0 is no effect and 10 is complete control
[5] = Preemergence, Rate 250 g/ha, scale 0 to 10, 0 is no effect, 10 is complete control
[6] = Preemergence, Rate 500 g/ha, scale 0 to 10, 0 is no effect, 10 is complete control
[7] = Rate 62 g/ha, Postemergence, scale of 0 to 10 where 0 is no effect and 10 is complete control
[8] = Rate 125 g/ha, Postemergence, scale 0 to 10, 0 is no effect, 10 is complete control
[9] = Postemergence block (flood test species), Rate 250 g/ha, scale 0 to 10
[10] = Postemergence section (flood test species), Rate 500 g/ha, scale of 0 to 10 where 0 is no effect and 10 is complete control
[11] = Rate 125 g/ha, Postemergence section (flood test species), scale 0 to 10, 0 is no effect, 10 is complete control
[12] = Rate 62 g/ha, Postemergence (flood test species), scale of 0 to 10 where 0 is no effect and 10 is complete control

C=CC[Si](C)(C)Cn1c(=O)on(C(=O)N(c2ccc(F)cc2)C(C)C)c1=O [Compound 426]
5: Redroot pigweed plant response rating (pigweed; [1]) | Velvetleaf plant response rating (velvetleaf; [6])
8: Plant response rating, Crabgrass (crabgrass; [3]) | Redroot pigweed plant response rating (pigweed; [5]) | Rape plant response rating (rape; [5]) | Wild oats plant response rating (wild oat; [5])
1: Crabgrass plant response rating (crabgrass; [7]) | Velvetleaf plant response rating (velvetleaf; [1])
0: Cocklebur plant response rating (cocklebur; [1]) | Cocklebur plant response rating (cocklebur; [2]) | Plant response rating, Cocklebur (cocklebur; [3]) | Plant response rating, Cocklebur (cocklebur; [4]) | Cocklebur plant response rating (cocklebur; [5]) | Cocklebur plant response rating (cocklebur; [6]) | Cocklebur plant response rating (cocklebur; [7]) | Cocklebur plant response rating (cocklebur; [8]) | Plant response rating, Corn (corn; [3]) | Plant response rating, Corn (corn; [4]) | Corn plant response rating (corn; [5]) | Corn plant response rating (corn; [7]) | Corn plant response rating (corn; [8]) | Plant response rating, Morningglory (morningglory; [3]) | Plant response rating, Morningglory (morningglory; [4]) | Morningglory plant response rating (morningglory; [5]) | Redroot pigweed plant response rating (pigweed; [8]) | Plant response rating, Rape (rape; [3]) | Plant response rating, Rape (rape; [4]) | Rape plant response rating (rape; [8]) | Plant response rating, Soybean (soybean; [3]) | Plant response rating, Soybean (soybean; [4]) | Soybean plant response rating (soybean; [5]) | Soybean plant response rating (soybean; [6]) | Plant response rating, Sugarbeets (sugar beet; [3]) | Plant response rating, Velvetleaf (velvetleaf; [3]) | Velvetleaf plant response rating (velvetleaf; [8]) | Wheat plant response rating (wheat; [1]) | Plant response rating, Wheat (wheat; [3]) | Plant response rating, Wheat (wheat; [4]) | Wheat plant response rating (wheat; [8]) | Wild oats plant response rating (wild oat; [8]) | Nutsedge plant response rating (purple nutsedge; [1]) | Plant response rating, Nutsedge (purple nutsedge; [3]) | Plant response rating, Nutsedge (purple nutsedge; [4]) | Nutsedge plant response rating (purple nutsedge; [5]) | Nutsedge plant response rating (purple nutsedge; [6]) | Nutsedge plant response rating (purple nutsedge; [8]) | Rice plant response rating (rice; [9]) | Rice plant response rating (rice; [10]) | Rice plant response rating (rice; [11]) | Ducksalad plant response rating (duck salad; [9]) | Ducksalad plant response rating (duck salad; [10]) | Ducksalad plant response rating (duck salad; [12]) | Ducksalad plant response rating (duck salad; [11]) | Barnyardgrass plant response rating (bamyardgrass; [9]) | Barnyardgrass plant response rating (bamyardgrass; [10]) | Barnyardgrass plant response rating (bamyardgrass; [12]) | Barnyardgrass plant response rating (bamyardgrass; [11])
10: Crabgrass plant response rating (crabgrass; [5]) | Crabgrass plant response rating (crabgrass; [6]) | Giant foxtail plant response rating (giant foxtail; [5]) | Giant foxtail plant response rating (giant foxtail; [6]) | Redroot pigweed plant response rating (pigweed; [6]) | Rape plant response rating (rape; [6]) | Wild oats plant response rating (wild oat; [6])
4: Corn plant response rating (corn; [2]) | Plant response rating, Redroot pigweed (pigweed; [4]) | Rape plant response rating (rape; [2]) | Soybean plant response rating (soybean; [8]) | Sugarbeets plant response rating (sugar beet; [5])
2: Corn plant response rating (corn; [1]) | Plant response rating, Redroot pigweed (pigweed; [3]) | Rape plant response rating (rape; [1]) | Velvetleaf plant response rating (velvetleaf; [2]) | Plant response rating, Velvetleaf (velvetleaf; [4]) | Velvetleaf plant response rating (velvetleaf; [5]) | Wheat plant response rating (wheat; [2]) | Wheat plant response rating (wheat; [5]) | Wild oats plant response rating (wild oat; [1]) | Wild oats plant response rating (wild oat; [2]) | Plant response rating, Wild oats (wild oat; [3])
9: Crabgrass plant response rating (crabgrass; [1]) | Crabgrass plant response rating (crabgrass; [2]) | Plant response rating, Crabgrass (crabgrass; [4]) | Giant foxtail plant response rating (giant foxtail; [1]) | Giant foxtail plant response rating (giant foxtail; [2]) | Plant response rating, Giant foxtail (giant foxtail; [3]) | Plant response rating, Giant foxtail (giant foxtail; [4]) | Morningglory plant response rating (morningglory; [1]) | Morningglory plant response rating (morningglory; [2])
3: Giant foxtail plant response rating (giant foxtail; [7]) | Sugarbeets plant response rating (sugar beet; [1]) | Sugarbeets plant response rating (sugar beet; [2]) | Plant response rating, Sugarbeets (sugar beet; [4]) | Sugarbeets plant response rating (sugar beet; [8]) | Nutsedge plant response rating (purple nutsedge; [2])
6: Corn plant response rating (corn; [6]) | Crabgrass plant response rating (crabgrass; [8]) | Morningglory plant response rating (morningglory; [6]) | Redroot pigweed plant response rating (pigweed; [2]) | Soybean plant response rating (soybean; [1]) | Sugarbeets plant response rating (sugar beet; [6]) | Wheat plant response rating (wheat; [6])
7: Giant foxtail plant response rating (giant foxtail; [8]) | Morningglory plant response rating (morningglory; [8]) | Soybean plant response rating (soybean; [2]) | Plant response rating, Wild oats (wild oat; [4])
